For 27 molecules, IC50 results are on record in patent publication US9085555B2, “Complement pathway modulators and uses thereof” (priority 2011, dated 2015).

For this assay, the target named is Factor D (Homo sapiens (Human), UniProt P00746). Kind of assay: biochemical. The assay is classed as biochemical. Conditions: read-out: IC50.
Chain of Factor D (P00746 26-253): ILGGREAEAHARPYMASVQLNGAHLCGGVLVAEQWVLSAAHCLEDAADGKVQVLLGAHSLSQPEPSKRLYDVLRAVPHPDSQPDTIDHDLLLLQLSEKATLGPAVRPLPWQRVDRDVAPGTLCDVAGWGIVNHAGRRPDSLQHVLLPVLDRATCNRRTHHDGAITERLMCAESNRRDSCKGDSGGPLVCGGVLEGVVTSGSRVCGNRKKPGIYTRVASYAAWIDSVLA
In the case of `CC1(C)CC[C@@H](C(=O)NCc2cccc(Cl)c2F)N1C(=O)Nc1cn(C(N)=O)c2ccccc12` [Example 302, (S)-5,5-Dimethyl-pyrrolidine-1,2-dicarboxylic acid 1-[(1-carbamoyl-1H-indol-3-yl)-amide] 2-(3-chloro-2-fluoro-benzylamide)], the IC50 was determined as 75 nM. Then `NC(=O)n1cc(NC(=O)N2CCC[C@H]2C(=O)Nc2cc(-c3ccccc3)no2)c2ccccc21` [Example 440, (S)-Pyrrolidine-1,2-dicarboxylic acid 1-[(1-carbamoyl-1H-indol-3-yl)-amide]2-[(3-phenyl-isoxazol-5-yl)-amide]], with 1050 nM; and `CCOC(=O)Cc1ccc2c(c1)c(NC(=O)N1[C@@H]3C[C@@H]3C[C@H]1C(=O)NCc1cccc(Cl)c1F)cn2C(N)=O` [Example 306, (1-carbamoyl-3-{[(1R,3S,5R)-3-(3-chloro-2-fluoro-benzylcarbamoyl)-2-aza-bicyclo[3.1.0]hexane-2-carbonyl]-amino}-1H-indol-5-yl)-acetic acid ethyl ester], with 4 nM. `COC(=O)c1cccc2c(C(C)=O)cn(CC(=O)N3[C@@H]4C[C@@H]4C[C@H]3C(=O)NCc3cccc(Cl)c3F)c12` [Example 541, 3-Acetyl-1-{2-[(1R,3S,5R)-3-(3-chloro-2-fluorobenzylcarbamoyl)-2-aza-bicyclo[3.1.0]hex-2-yl]-2-oxo-ethyl}-1H-indole-7-carboxylic acid methyl ester]: the IC50 amounted to 91 nM.

As for `Cc1ncc(Br)cc1NC(=O)[C@@H]1C[C@@H](F)CN1C(=O)Nc1cn(C(N)=O)c2ccccc12` [Example 168, (2S,4R)-4-Fluoro-pyrrolidine-1,2-dicarboxylic acid 2-[(5-bromo-2-methyl-pyridin-3-yl)-amide] 1-[(1-carbamoyl-1H-indol-3-yl)-amide]], the IC50 worked out at 250 nM.

Turning to `CC(=O)n1cc(C(N)C(=O)N2C[C@H](F)C[C@H]2C(=O)NCc2cccc(Cl)c2F)c2ccccc21` (stereo partly drawn) [Example 120, (2S,4R)-1-[2-(1-Acetyl-1H-indol-3-yl)-2-amino-acetyl]-4-fluoro-pyrrolidine-2-carboxylic acid 3-chloro-2-fluoro-benzylamide], the IC50 was found to be 3200 nM. Regarding `CCN(CC)c1cc(Cl)c(F)c(CNC(=O)[C@@H]2C[C@@H](F)CN2C(=O)Nc2cn(C(N)=O)c3ccccc23)c1` [Example 252, (2S,4R)-4-Fluoro-pyrrolidine-1,2-dicarboxylic acid 1-[(1-carbamoyl-1H-indol-3-yl)-amide] 2-(3-chloro-5-diethylamino-2-fluoro-benzylamide)], the IC50 came to 114 nM.

With `CNC(=O)n1cc(NC(=O)N2CCC[C@H]2C(=O)Nc2cccc(OC(F)(F)F)c2)c2ccccc21` [Example 282, (S)-Pyrrolidine-1,2-dicarboxylic acid 1-[(1-methylcarbamoyl-1H-indol-3-yl)-amide] 2-[(3-trifluoromethoxy-phenyl)-amide]], the IC50 stood at 3680 nM. To `C[C@@H]1CC[C@@H](C(=O)NCc2cccc(Cl)c2F)N1C(=O)Nc1cn(C(N)=O)c2ccccc12` [Example 350, 2S,5R)-5-Methyl-pyrrolidine-1,2-dicarboxylic acid 1-[(1-carbamoyl-1H-indol-3-yl)-amide]2-(3-chloro-2-fluoro-benzylamide] belongs 85 nM; to `CCc1cc2c(C(N)=O)nn(CC(=O)N3[C@@H]4C[C@@H]4C[C@H]3C(=O)Nc3cccc(OC(F)(F)F)c3F)c2cn1` [Example 712, 5-Ethyl-1-{2-[(1R,3S,5R)-3-(2-fluoro-3-trifluoromethoxy-phenylcarbamoyl)-2-aza-bicyclo[3.1.0]hex-2-yl]-2-oxo-ethyl}-1H-pyrazolo[3,4-c]pyridine-3-carboxylic acid amide], 38 nM; to `Cc1cc2c(C(N)=O)nn(CC(=O)N3[C@@H]4C[C@@H]4C[C@H]3C(=O)Nc3cccc(OC(F)(F)F)c3F)c2c[n+]1[O-]` [Example 726], 169 nM. To `Cc1nccc2c(C(N)=O)nn(CC(=O)N3[C@@H]4C[C@@H]4C[C@H]3C(=O)NCc3cccc(Cl)c3F)c12` [Example 694, 1-{2-[(1R,3S,5R)-3-(3-Chloro-2-fluoro-benzylcarbamoyl)-2-aza-bicyclo[3.1.0]hex-2-yl]-2-oxo-ethyl}-7-methyl-1H-pyrazolo[3,4-c]pyridine-3-carboxylic acid amide] belongs 17 nM; to `NC(=O)n1cc(NC(=O)N2C[C@H]3C[C@H]3[C@H]2C(=O)NCc2cccc(Cl)c2F)c2ccccc21` [Example 210, (1R,2S,5S)-3-Aza-bicyclo[3.1.0]hexane-2,3-dicarboxylic acid 3-[(1-carbamoyl-1H-indol-3-yl)-amide] 2-(3-chloro-2-fluoro-benzylamide)], 22 nM.

In the case of `NC(=O)n1cc(NC(=O)N2[C@@H]3C[C@@H]3C[C@H]2C(=O)N[C@H](CCO)c2cccc(Cl)c2F)c2ccccc21` [Example 223, (1R,3S,5R)-2-Azabicyclo[3.1.0]hexane-2,3-dicarboxylic acid 2-[(1-carbamoyl-1H-indol-3-yl)-amide] 3-{[(R)-1-(3-chloro-2-fluoro-phenyl)-3-hydroxy-propyl]-amide}], the IC50 worked out at 12 nM. Then `NC(=O)c1nn(CC(=O)N2[C@@H]3C[C@@H]3C[C@H]2C(=O)Nc2cccc(-c3c(F)cccc3F)n2)c2cnccc12` [Example 721, 1-(2-{(1R,3S,5R)-3-[6-(2,6-Difluoro-phenyl)-pyridin-2-ylcarbamoyl]-2-aza-bicyclo[3.1.0]hex-2-yl}-2-oxo-ethyl)-1H-pyrazolo[3,4-c]pyridine-3-carboxamide], with 98 nM; and `CO[C@H]1[C@@H](C(=O)Nc2cccc(Br)n2)N(C(=O)Cn2nc(C(N)=O)c3ccccc32)C[C@@H]1F` [Example 754, 1-{2-[(2S,3S,4S)-2-(6-Bromo-pyridin-2-ylcarbamoyl)-4-fluoro-3-methoxy-pyrrolidin-1-yl]-2-oxo-ethyl}-1H-indazole-3-carboxylic acid amide], with 5 nM; and `COC[C@@H](NC(=O)[C@@H]1C[C@H]2C[C@H]2N1C(=O)Cn1cc(C(C)=O)c2cccnc21)c1cccc(Cl)c1F` [Example 533, (1R,3S,5R)-2-[2-(3-Acetyl-pyrrolo[2,3-b]pyridin-1-yl)-acetyl]-2-aza-bicyclo[3.1.0] hexane-3-carboxylic acid [(S)-1-(3-chloro-2-fluoro-phenyl)-2-methoxy-ethyl]-amide], with 34 nM. For `NC(=O)c1nn(CC(=O)N2[C@@H]3C[C@@H]3C[C@H]2C(=O)Nc2cccc(-c3ncccc3Cl)c2F)c2cnccc12` [Example 688, 1-(2-{(1R,3S,5R)-3-[3-(3-Chloro-pyridin-2-yl)-2-fluoro-phenylcarbamoyl]-2-aza-bicyclo[3.1.0]hex-2-yl}-2-oxo-ethyl)-1H-pyrazolo[3,4-c] pyridine-3-carboxylic acid amide], the IC50 was 10 nM.

On to `NC(=O)c1cn(CC(=O)N2C[C@H](F)[C@@H](N)[C@H]2C(=O)NCc2cccc(Cl)c2F)c2ccccc12` [Example 574, 1-{2-[(2S,3S,4S)-3-Amino-2-(3-chloro-2-fluoro-benzylcarbamoyl)-4-fluoro-pyrrolidin-1-yl]-2-oxo-ethyl}-1H-indole-3-carboxylic acid amide], for which the IC50 stood at 217 nM. `NC(=O)n1cc(NC(=O)N2[C@@H]3C[C@@H]3C[C@H]2C(=O)NCc2ccccc2)c2ccccc21` [Example 258, (1R,3S,5R)-2-Aza-bicyclo[3.1.0]hexane-2,3-dicarboxylic acid 3-benzylamide 2-[(1-carbamoyl-1H-indol-3-yl)-amide]]: the IC50 amounted to 78 nM. On to `NC(=O)c1nn(CC(=O)N2[C@@H]3C[C@@H]3C[C@H]2C(=O)Nc2cccc(OC(F)F)c2F)c2cnccc12` [Example 730, 1-{2-[(1R,3S,5R)-3-(3-Difluoromethoxy-2-fluoro-phenylcarbamoyl)-2-aza-bicyclo[3.1.0]hex-2-yl]-2-oxo-ethyl}-1H-pyrazolo[3,4-c] pyridine-3-carboxylic acid amide], for which the IC50 is 143 nM.

As to `COC(=O)[C@H](Cc1ccccc1)NC(=O)[C@@H]1C[C@H](N)CN1C(=O)Nc1cn(C(N)=O)c2ccccc12` [Example 97, (S)-2-{[(2S,4S)-4-Amino-1-(1-carbamoyl-1H-indol-3-ylcarbamoyl)-pyrrolidine-2-carbonyl]-amino}-3-phenyl-propionic acid methyl ester], the IC50 was 900 nM. Consider `CC(=O)c1cn(CC(=O)N2[C@@H]3C[C@@H]3C[C@H]2C(=O)NCc2cccc(Cl)c2F)c2cccnc12` [Example 553, (1R,3S,5R)-2-[2-(3-Acetyl-pyrrolo[3,2-b]pyridin-1-yl)-acetyl]-2-aza-bicyclo[3.1.0] hexane-3-carboxylic acid 3-chloro-2-fluoro-benzylamide], for which the IC50 was determined as 5300 nM. As to `NC(=O)n1cc(NC(=O)N2C[C@](F)(CN3CCOCC3)C[C@H]2C(=O)NCc2cccc(Cl)c2F)c2ccccc21` [Example 209, (2S,4R)-4-Fluoro-morpholin-4-ylmethyl-pyrrolidine-1,2-dicarboxylic acid 1-[(1-carbamoyl-1H-indol-3-yl)-amide] 2-(3-chloro-2-fluoro-benzylamide)], the IC50 came out at 1900 nM. For the molecule `CC(=O)c1nn(CC(=O)N2[C@@H]3C[C@@H]3C[C@H]2C(=O)N[C@H](CO)c2cccc(Cl)c2F)c2ncccc12` [Example 677, (1R,3S,5R)-2-[2-(3-Acetyl-pyrazolo[3,4-b]pyridin-1-yl)-acetyl]-2-aza-bicyclo [3.1.0]hexane-3-carboxylic acid [(S)-1-(3-chloro-2-fluoro-phenyl)-2-hydroxy-ethyl]-amide], the IC50 was 10 nM. Then `NC(=O)c1nn(CC(=O)N2[C@@H]3C[C@@H]3C[C@H]2C(=O)Nc2cccc(OC(F)(F)F)c2F)c2nnccc12` [Example 720, 1-(2-((1R,3S,5R)-3-((2-Fluoro-3-(trifluoromethoxy)phenyl)carbamoyl)-2-azabicyclo[3.1.0]hexan-2-yl)-2-oxoethyl)-1H-pyrazolo[3,4-c] pyridazine-3-carboxamide], with 140 nM. Turning to `CO[C@H]1[C@@H](C(=O)Nc2cccc(Br)n2)N(C(=O)Cn2nc(C(C)=O)c3ccccc32)C[C@@H]1F` [Example 756, (2S,3S,4S)-1-[2-(3-Acetyl-indazole-1-yl)-acetyl]-4-fluoro-3-methoxy-pyrrolidine-2-carboxylic acid (6-bromo-pyridin-2-yl)-amide], the IC50 worked out at 7 nM.

The IC50 is the concentration at which inhibition is half-maximal.
